Nine molecules from publication PMC11243256 (Molecules, 2024) can be followed below.

Read-outs that look alike come from different tables or passages of the source.

Holding throughout (assay): microscale thermophoresis
What all share (type): binding
In general terms: MST reads how a fluorescent partner responds to local heating, with and without ligand.

The target in one assay is T1, PYL6 (Arabidopsis thaliana, UniProt Q8S8E3).
T1 construct: NT-647-NHS labelled
T1 sequence (Q8S8E3 1-215): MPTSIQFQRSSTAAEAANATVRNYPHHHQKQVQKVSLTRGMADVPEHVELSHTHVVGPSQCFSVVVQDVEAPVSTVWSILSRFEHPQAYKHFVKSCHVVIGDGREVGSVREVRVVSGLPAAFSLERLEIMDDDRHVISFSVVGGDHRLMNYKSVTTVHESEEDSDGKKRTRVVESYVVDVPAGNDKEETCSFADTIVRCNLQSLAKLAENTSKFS
An excerpt:
microscale thermophoresis on PYL6

The target of a further assay is T2, PYL2 (Arabidopsis thaliana, UniProt O80992).
T2 construct: NT-647-NHS labelled
T2 sequence (O80992 1-190): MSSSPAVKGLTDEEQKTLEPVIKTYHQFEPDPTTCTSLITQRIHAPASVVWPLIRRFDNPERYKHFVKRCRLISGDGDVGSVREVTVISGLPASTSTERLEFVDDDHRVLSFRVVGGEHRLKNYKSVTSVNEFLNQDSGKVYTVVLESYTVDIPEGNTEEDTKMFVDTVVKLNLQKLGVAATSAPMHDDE
From the text: microscale thermophoresis on PYL2

The target in a further assay is T3, PYR1 (Arabidopsis thaliana, UniProt O49686).
T3 construct: NT-647-NHS labelled; 'dimer PYR1' in the docking section
T3 sequence (O49686 1-191): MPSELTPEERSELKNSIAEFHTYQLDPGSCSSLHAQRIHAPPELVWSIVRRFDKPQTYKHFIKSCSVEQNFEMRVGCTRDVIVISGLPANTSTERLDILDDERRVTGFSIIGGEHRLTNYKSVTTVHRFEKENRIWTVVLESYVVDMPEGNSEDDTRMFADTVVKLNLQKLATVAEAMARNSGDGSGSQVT
From the text:
microscale thermophoresis on PYR1

Another assay addresses T4, PYL3 (Arabidopsis thaliana, UniProt Q9SSM7).
T4 construct: NT-647-NHS labelled
T4 sequence (Q9SSM7 1-209): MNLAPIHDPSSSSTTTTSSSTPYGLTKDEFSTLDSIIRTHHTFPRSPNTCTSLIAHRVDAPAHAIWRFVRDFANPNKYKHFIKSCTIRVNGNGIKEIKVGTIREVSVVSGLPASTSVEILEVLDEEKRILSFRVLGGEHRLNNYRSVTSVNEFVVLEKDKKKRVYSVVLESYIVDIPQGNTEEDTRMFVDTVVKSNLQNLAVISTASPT

The target of another assay is T5, PYL10 (Arabidopsis thaliana, UniProt Q8H1R0).
T5 construct: NT-647-NHS labelled; 'monomer PYL10' in the docking section
T5 sequence (Q8H1R0 1-183): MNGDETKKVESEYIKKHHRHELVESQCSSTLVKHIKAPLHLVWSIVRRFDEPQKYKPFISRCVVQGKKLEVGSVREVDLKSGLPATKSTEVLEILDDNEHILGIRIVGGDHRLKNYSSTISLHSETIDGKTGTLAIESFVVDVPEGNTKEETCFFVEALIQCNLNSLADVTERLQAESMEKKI
An excerpt: microscale thermophoresis on PYL10

[1] abbreviates: PBS, NT-647-NHS-labelled receptor.

With `CCCCCCOc1ccc2c(c1)C(=O)C(C)(C)CC2(O)/C=C/C(C)=C\C(=O)O` (centres unmarked) [APA6], the Kd on PYL6 is 1.62 ± 0.17 µM; on PYL2, 2.91 ± 0.17 µM; on PYR1 it was 121 ± 13.6 µM; on PYL3, 4.09 ± 0.65 µM; on PYL10 it was 44.9 ± 8.09 µM.

Consider `CC(=C/C(=O)O)/C=C/C1(O)CC(C)(C)C(=O)c2cc(OCCCCc3ccccc3)ccc21` (centres unmarked) [APA11], for which the Kd on PYL6 worked out at 0.9 ± 0.22 µM; on PYL2, 0.46 ± 0.09 µM; at PYR1 it was 59.4 ± 3.41 µM; on PYL3, 3.11 ± 0.4 µM; on PYL10, 17.6 ± 2.11 µM.

Consider `CC(=C/C(=O)O)/C=C/C1(O)CC(C)(C)C(=O)c2cc(OCCC(C)CC(C)(C)C)ccc21` (centres unmarked) [APA14], for which the Kd at PYL6 worked out at 2.55 ± 0.46 µM; on PYL2 it was 0.11 ± 0.01 µM; on PYR1, 60.8 ± 9.02 µM; on PYL3, 5.18 ± 0.84 µM; on PYL10 it was 45.5 ± 2.47 µM.

In the case of `CC(=C/C(=O)O)/C=C/C1(O)CC(C)(C)C(=O)c2cc(OCCC(C)CCCC(C)C)ccc21` (centres unmarked) [APA15], the Kd is 1.99 ± 0.32 µM on PYL6; 2.04 ± 0.29 µM on PYL2; 37.9 ± 3.09 µM on PYR1; 7.95 ± 1.66 µM at PYL3; 36.3 ± 2.18 µM at PYL10.

As for `CC(C)=CCCC(C)CCOc1ccc2c(c1)C(=O)C(C)(C)CC2(O)/C=C/C(C)=C\C(=O)O` (centres unmarked) [APA16], the Kd on PYL6 stood at 2.1 ± 0.31 µM; on PYL2 it was 5.84 ± 0.24 µM; on PYR1 it was 53.4 ± 4.71 µM; at PYL3, 7.84 ± 0.95 µM; on PYL10 it was 65 ± 2.76 µM.

Regarding `CCOCCOc1ccc2c(c1)C(=O)C(C)(C)CC2(O)/C=C/C(C)=C\C(=O)O` (centres unmarked) [APA17], the Kd on PYL6 worked out at 13.1 ± 1.46 µM; on PYL2, 7.07 ± 0.21 µM; at PYR1, 42.2 ± 6.71 µM; on PYL3 it was 19 ± 2.1 µM; at PYL10, 23.9 ± 2.68 µM.

As to `COCCOCCOc1ccc2c(c1)C(=O)C(C)(C)CC2(O)/C=C/C(C)=C\C(=O)O` (centres unmarked) [APA18], the Kd on PYL6 was determined as 4.17 ± 0.93 µM; at PYL2, 0.14 ± 0.02 µM; on PYR1, 73.9 ± 5.28 µM; at PYL3 it was 9.33 ± 1.39 µM; at PYL10 it was 37.5 ± 2.83 µM.

`CC1=CC(=O)CC(C)(C)[C@@]1(O)/C=C/C(C)=C\C(=O)O` [compound 1, ABA]: the Kd on PYL6 came to 19.5 ± 3.92 µM; on PYL2, 16.2 ± 4.84 µM; on PYR1, 188 ± 29 µM; at PYL10 it was 152 ± 31 µM.

Consider iso-PhABA, for which the Kd at PYL6 (setting [1]) is 6.77 ± 0.32 µM; at PYL2 (setting [1]), 7.54 ± 2.36 µM; at PYR1 (setting [1]), 187 ± 22.3 µM; on PYL3 (setting [1]), 16.3 ± 2.78 µM; on PYL10 (setting [1]) it was 92 ± 5.13 µM.

For orientation: Kd means the concentration at which binding is half-saturated.
